Experimental data taken from patent publication US9802895B2, “Indole and benzimidazolecarboxamides as insecticides and acaricides” (BAYER CROPSCIENCE AKTIENGESELLSCHAFT, priority 2014, dated 2017).

Experiments:
[1] = system: larvae of the mustard beetle (Phaedon cochleariae); test: Phaedon cochleariae spray test (PHAECO); type: in vivo; settings: 100 g/ha, after 7 days
Summary of the method: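 Compound dissolved in acetone/dimethylformamide and diluted with water containing 1000 ppm alkylaryl polyglycol ether emulsifier to test concentrations. Efficacy in % scored after 7 days: 100% means all beetle larvae killed, 0% none killed.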

[2] = system: adult cat fleas (Ctenocephalides felis); test: Ctenocephalides felis oral test (CTECFE); type: in vivo; settings: 100 ppm, oral in cattle blood, after 2 days
Summary of the method: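 About 20 unfed adult fleas fed through a parafilm membrane on citrated cattle blood containing compound, added from a DMSO stock and diluted to test concentration. Kill % was scored after 2 days, where 100% means all fleas dead and 0% means none.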

[3] = system: L2 larvae of the banded cucumber beetle (Diabrotica balteata); test: Diabrotica balteata drench test (DIABBA); type: in vivo; settings: 20 ppm, 8 dat
Protocol: Diabrotica balteata—Drench Test (DIABBA) Solvent: 7 parts by weight of dimethylformamide Emulsifier: 2 parts by weight of alkylaryl polyglycol ether To produce a suitable active compound formulation, 1 part by weight of active compound is mixed with the specified amounts of solvent and emulsifier, and the concentrate is diluted with water to the desired concentration, it being necessary to include the volume of soil which is drenched in the calculation. It should be ensured that a concentration of 40 ppm of emulsifier in the soil is not exceeded. To produce further test concentrations, water is used for dilution. […] After one day, 25 L2 larvae of the banded cucumber beetle (Diabrotica balteata) are added. After 8 days, the efficacy in % is determined 100% means that all 5 plants have germinated and grown; 0% means that none of the plants has emerged.

[4] = system: adult houseflies (Musca domestica); test: Musca domestica test (MUSCDO); type: in vivo; settings: 100 ppm, after 2 days
Summary of the method: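 Ten adult houseflies housed with a sponge carrying sugar solution plus compound, formulated in DMSO and diluted with water to test concentration. Mortality (%) scored after 2 days; 100% = all flies dead.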

[5] = system: southern root-knot nematode (Meloidogyne incognita); test: Meloidogyne incognita test; type: in vivo; settings: 20 ppm, after 14 days
Protocol: Meloidogyne incognita Test Solvent: 125.0 parts by weight of acetone To produce a suitable active compound formulation, 1 part by weight of active compound is mixed with the stated amount of solvent and the concentrate is diluted with water to the desired concentration. Vessels are filled with sand, active compound solution, an egg/larvae suspension of the southern root-knot nematode (Meloidogyne incognita) and lettuce seeds. The lettuce seeds germinate and the plants develop. The galls develop on the roots. After 14 days, the nematicidal efficacy in % is determined by the formation of galls. 100% means that no galls were found; 0% means that the number of galls on the treated plants corresponds to the untreated control.

[6] = system: engorged adult female cattle ticks (Boophilus microplus); test: Boophilus microplus injection test (BOOPMI inj); type: in vivo; settings: assessed after 7 days
Summary of the method: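 1 μl of compound in DMSO is injected into the abdomen of 5 engorged females per group, which are then held in a climate-controlled room. After 7 days, egg-laying and egg fertility are scored, with unclear eggs kept about 42 days until hatch; 100% means no fertile eggs laid.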

[7] = system: caterpillars of the armyworm (Spodoptera frugiperda); test: Spodoptera frugiperda spray test (SPODFR); type: in vivo; settings: for efficacy: 100 g/ha, spray, after 7 days; for % efficacy: SPODFR, 7 dat
Summary of the method: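 Maize leaf discs sprayed with compound in acetone/dimethylformamide diluted in water with 1000 ppm alkylaryl polyglycol ether emulsifier, dried, then infested with armyworm caterpillars. Efficacy in % after 7 days (100% = all caterpillars killed, 0% = none).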

[8] = system: L1 larvae of the Australian sheep blowfly (Lucilia cuprina); test: Lucilia cuprina test (LUCICU); type: in vivo; settings: 100 ppm, after 2 days
Summary of the method: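 About 20 L1 larvae placed in vessels with minced horsemeat containing compound (DMSO formulation diluted with water to test concentration). Kill in % scored after 2 days.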

[9] = log P by HPLC (EEC directive 79/831 Annex V.A8); type: physicochemical; settings: 43° C., acidic range pH 2.7; for log P: HPLC, reversed-phase column (C18)
Summary of the method: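 Measured by reversed-phase HPLC on a C18 column at 43 °C per EEC directive 79/831 Annex V.A8. Calibration used unbranched alkan-2-ones (C3–C16) of known log P.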

[10] = system: greenhouse red spider mite (Tetranychus urticae); test: Tetranychus urticae spray test, OP-resistant (TETRUR); type: in vivo; settings: 100 g/ha, spray, after 6 days
Summary of the method: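 Bean (Phaseolus vulgaris) leaf discs infested with all stages of OP-resistant Tetranychus urticae were sprayed with compound in acetone/DMF diluted in water with 1000 ppm emulsifier. Efficacy was scored as % mites killed after 6 days.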

[11] = system: green peach aphid (Myzus persicae); test: Myzus persicae spray test; type: in vivo; settings: 100 g/ha, after 6 days
Protocol: Myzus persicae—Spray Test Solvent: 78 parts by weight of acetone • • 1.5 parts by weight of dimethylformamide Emulsifier: alkylaryl polyglycol ether To produce a suitable appropriate active compound formulation, 1 part by weight of active compound is dissolved using the specified parts by weight of solvent and made up with water containing an emulsifier concentration of 1000 ppm until the desired concentration is attained. To produce further test concentrations, the preparation is diluted with emulsifier-containing water. Discs of Chinese cabbage leaves (Brassica pekinensis) infested by all stages of the green peach aphid (Myzus persicae) are sprayed with an active compound formulation of the desired concentration. After 6 days, the efficacy in % is determined. 100% means that all the aphids have been killed; 0% means that none of the aphids have been killed.

[12] = system: Tick nymphs (Amblyomma hebraeum); test: Amblyomma hebraeum test (tick nymph immersion); type: in vivo; settings: 100 ppm, after 42 days
Protocol: Amblyomma Hebaraeum Test Solvent: dimethyl sulphoxide To produce a suitable active compound formulation, 10 mg of active compound are mixed with 0.5 ml of dimethyl sulphoxide, and the concentrate is diluted with water to the desired concentration. Tick nymphs (Amblyomma hebraeum) are placed into perforated plastic beakers and immersed in the desired concentration for one minute. The ticks are transferred on filter paper into a Petri dish and stored in a climate-controlled cabinet. After 42 days, the kill in % is determined. 100% means that all of the ticks have been killed; 0% means that none of the ticks have been killed.

[13] = system: cattle ticks (Boophilus microplus) Parkhurst strain, SP-resistant; test: Boophilus microplus dip test; type: in vivo; settings: 20 ppm, assessed after 7 days
Protocol: Boophilus microplus—Dip Test
Test animals: cattle ticks (Boophilus microplus) Parkhurst strain, SP-resistant
Solvent: dimethyl sulphoxide
10 mg of active compound are dissolved in 0.5 ml of dimethyl sulphoxide. For the purpose of producing a suitable formulation, the active compound solution is diluted with water to the concentration desired in each case.
This active compound preparation is pipetted into tubes. 8-10 engorged adult female cattle ticks (Boophilus microplus) are transferred into a further tube with holes. The tube is immersed into the active compound formulation, and all the ticks are completely wetted. After the liquid has run out, the ticks are transferred on filter discs into plastic dishes and stored in a climate-controlled room.
The efficacy is assessed after 7 days by laying of fertile eggs. Eggs which are not visibly fertile are stored in a climate-controlled cabinet until the larvae hatch after about 42 days. An efficacy of 100% means that none of the ticks has laid any fertile eggs; 0% means that all the eggs are fertile.

| Compound | efficacy [1] | efficacy (kill in %) [2] | % efficacy [3] | efficacy (kill in %) [4] | nematicidal efficacy (formation of galls) [5] | efficacy (laying of fertile eggs) [6] | efficacy [7] | efficacy (kill in %) [8] | log P [9] | efficacy [10] | efficacy [11] | % efficacy ([7]; 0.8 g/ha) | % efficacy ([7]; 4 g/ha) | efficacy (kill in %) [12] | efficacy (laying of fertile eggs) [13] | chromatographic logP ([9]; reversed-phase C18 HPLC column, pH 2.7, HPLC) |
| --- | --- | --- | --- | --- | --- | --- | --- | --- | --- | --- | --- | --- | --- | --- | --- | --- |
| C#CCn1c(C(=O)NC(c2ccc(Cl)c(C(F)(F)F)c2)C(F)(F)F)cc2cc(C(=O)NC3(C(N)=S)CC3)c(Cl)cc21 (stereo not shown) [I-19] | 100% | 100% | 100% | 100% | 90% | 100% | 100% | 100% | 3.73 | 100% | – | – | – | – | – | – |
| Cn1c(C(=O)NC(c2cc(Cl)c(Cl)c(Cl)c2)C(F)(F)F)cc2cc(C(=O)NC3(C(N)=S)CC3)c(Cl)cc21 (stereo not shown) [I-20] | 100% | 100% | – | 100% | – | 100% | 100% | 100% | 4.07 | 100% | 90% | 100% | 100% | – | – | – |
| CCn1c(C(=O)NC(c2cc(Cl)c(Cl)c(F)c2F)C(F)(F)F)cc2cc(C(=O)NC3(C(N)=S)CC3)c(Cl)cc21 (stereo not shown) [I-29] | 100% | 100% | – | 100% | – | 100% | 100% | 100% | 4.27 | 90% | 100% | – | – | – | – | – |
| CCn1c(C(=O)NC(c2ccc(F)c(C(F)(F)F)c2)C(F)(F)F)nc2cc(C(=O)NC3(C(N)=S)CC3)c(Cl)cc21 (stereo not shown) [I-30, N5-(1-Carbamothioylcyclopropyl)-6-chloro-1-ethyl-N2-{2,2,2-trifluoro-1-[4-fluoro-3-(trifluoromethyl)phenyl]ethyl}-1H-benzimidazole-2,5-dicarboxamide] | 100% | 100% | – | 100% | – | 100% | 100% | 100% | 3.46 | 100% | – | – | – | 100% | 100% | 3.56 |
| CCn1c(C(=O)NC(c2ccc(F)c(C(F)(F)F)c2)C(F)F)cc2cc(C(=O)NC3(C(N)=S)CC3)c(Cl)cc21 (stereo not shown) [I-32] | 100% | 100% | – | – | – | 100% | 100% | 100% | 3.41 | 100% | 90% | – | – | – | – | – |
